From article PMC10672332, “Lecanicilliums A–F, Thiodiketopiperazine-Class Alkaloids from a Mangrove Sediment-Derived Fungus Lecanicillium kalimantanense” (Marine Drugs, 2023)
In brackets after ≈: the same amount, converted by molar mass. Read-outs that look alike come from different tables or passages of the source.

Legend:
Bacillus subtilis BS01 = test: Antibacterial assay, micro broth dilution; format: cell-based; details: read-out: Antibacterial Activity (MIC) B. subtilis
Description: (§1) The micro broth dilution method was used to evaluate the antibacterial activities of compounds 1–19 against the growth of eight common pathogens: Bacillus subtilis BS01, Micrococcus luteus, Escherichia coli ATCC 25922, Staphylococcus aureus ATCC 6538, S. aureus MRSA, Streptococcus agalactiae ATCC 13813, S. iniae, and Pseudomonas aeruginosa ATCC 9027 in 96-well polystyrene plates. Vancomycin and ciprofloxacin were used as positive controls. Briefly, wells containing 100 μL bacteria dilutions (OD600 = 0.01) in Luria–Bertani (LB) medium were supplemented with different concentrations of 1–19 (80, 40, 20, 10, 5, 2.5, 1.25, and 0.625 μg/mL), vancomycin, and ciprofloxacin (40, 20, 10, 5, 2.5, 1.25, 0.625, and 0.3125 μg/mL), respectively. The MICs were determined after 24 hours’ incubation at 37 °C with the tested compounds.

[1] = system: Escherichia coli ATCC 25922; test: Antibacterial assay, micro broth dilution; format: cell-based; details: read-out: Antibacterial Activity (MIC) E. coli
Description: as §1

Micrococcus luteus [2] = test: Antibacterial assay, micro broth dilution; format: cell-based; details: read-out: Antibacterial Activity (MIC) M. luteus
Description: as §1

[3] = system: Pseudomonas aeruginosa ATCC 9027; test: Antibacterial assay, micro broth dilution; format: cell-based; details: read-out: Antibacterial Activity (MIC) P. aeruginosa
Description: as §1

S. aureus MRSA = test: Antibacterial assay, micro broth dilution; format: cell-based; details: Staphylococcus aureus, read-out: Antibacterial Activity (MIC) MRSA
Description: as §1

S. iniae = test: Antibacterial assay, micro broth dilution; format: cell-based; details: Streptococcus iniae, read-out: Antibacterial Activity (MIC) S. iniae
Description: as §1

[4] = system: Staphylococcus aureus ATCC 6538; test: Antibacterial assay, micro broth dilution; format: cell-based; details: read-out: Antibacterial Activity (MIC) S. aureus
Description: as §1

[5] = system: Streptococcus agalactiae ATCC 13813; test: Antibacterial assay, micro broth dilution; format: cell-based; details: read-out: Antibacterial Activity (MIC) S. agalactiae
Description: as §1

[6] = Cytotoxicity, CCK-8 method; format: cell-based; details: human
Description: (§2) Cytotoxic activity was evaluated using the human lung adenocarcinoma cell line H1975 and human hepatocellular carcinoma cell line HepG-2, using the CCK-8 method as described in our previous study. Briefly, each of the test compounds was dissolved in DMSO and further diluted to give final concentrations of 80, 40, 20, 10, 5, 2.5, and 1.25 μM, respectively. H1975 cells or HepG-2 cells (5 × 10^3 […]) were seeded in 96-well plates and treated with compounds at the indicated concentration for 24 hours and then 10 μL CCK-8 reagent was added to each well. The plates were incubated at 37 °C for another 4 hours. Finally, the optical density was measured at a wavelength of 450 nm with a Bio-Rad microplate reader. Dose–response curves were generated, and the IC50 values were calculated from the linear portion of log dose–response curves.

[7] = Cytotoxicity, CCK-8 method; format: cell-based; details: human; remark: listed apart in the source
Description: as §2

brine shrimps = test: Brine shrimp lethality bioassay; format: in vivo; details: Table 3
Source text: The methods were the same as those used in our previous studies.

[8] = Antibacterial assays, summary in text over several pathogens; format: cell-based; details: read-out: MIC values against four pathogens
Description: as §1

Micrococcus luteus [9] = system: Micrococcus luteus; set-up: method as in PMID 25574740; details: cited from earlier work
Staphylococcus aureus = details: cited from earlier work
[10] = system: human ovarian cancer cells; details: read-out: IC50 against human ovarian cancer cells; cited from earlier work
[11] = BS01, micro broth dilution, LB medium, 24 hours at 37 °C
[12] = ATCC25922, micro broth dilution, LB medium, 24 hours at 37 °C
[13] = micro broth dilution, LB medium, 24 hours at 37 °C
[14] = ATCC9027, micro broth dilution, LB medium, 24 hours at 37 °C
[15] = ATCC6538, micro broth dilution, LB medium, 24 hours at 37 °C
[16] = ATCC13813, micro broth dilution, LB medium, 24 hours at 37 °C
[17] = H1975 cells, CCK-8, 24 hours treatment, read-out: Cytotoxicity (IC50) against H1975
[18] = HepG-2 cells, CCK-8, 24 hours treatment, read-out: Cytotoxicity (IC50) against HepG-2

CSS[C@@]12CC3=COC=C[C@H](OC(C)=O)[C@H]3N1C(=O)[C@]1(SC)CC3=COC=C[C@H](OC(C)=O)[C@H]3N1C2=O [Compound 5, Lecanicillium E]
MIC (Bacillus subtilis BS01; [11]): 10 µg/mL (≈ 17.6 µM) | MIC [1, 12]: 80 µg/mL (≈ 141 µM) | MIC (Micrococcus luteus [2]; [13]): 40 µg/mL (≈ 70.6 µM) | MIC [3, 14]: > 80 µg/mL | MIC (S. aureus MRSA; [13]): > 80 µg/mL | MIC (S. iniae; [13]): 15 µg/mL (≈ 26.5 µM) | MIC [4, 15]: > 80 µg/mL | MIC [5, 16]: 25 µg/mL (≈ 44.1 µM) | IC50 at 24 h [6]: 16.3 µM | IC50 at 24 h [7]: > 80 µM | Toxicity (TC50) Brine Shrimp (brine shrimps): 40 µg/mL | MIC [8]: 10 to 40 µg/mL (≈ 17.6 to 70.6 µM)

CS[C@@]12CC3=CC=C[C@H](O)[C@H]3N1C(=O)[C@]1(SC)CC3=COC=C[C@H](O)[C@H]3N1C2=O [Compound 14, bisdethiobis(methylsulfanyl)deacetylapoaranotin]
MIC (Bacillus subtilis BS01; [11]): > 80 µg/mL | MIC [1, 12]: > 80 µg/mL | MIC (Micrococcus luteus [2]; [13]): > 80 µg/mL | MIC [3, 14]: > 80 µg/mL | MIC (S. aureus MRSA; [13]): > 80 µg/mL | MIC (S. iniae; [13]): 40 µg/mL (≈ 92.1 µM) | MIC [4, 15]: > 80 µg/mL | MIC [5, 16]: > 80 µg/mL | IC50 at 24 h [6]: > 80 µM | IC50 at 24 h [7]: > 80 µM | Toxicity (TC50) Brine Shrimp (brine shrimps): >80 µg/mL

CS[C@@]12CC3=CC=C[C@H](OC(C)=O)[C@H]3N1C(=O)[C@]1(SC)CC3=CC=C[C@H](OC(C)=O)[C@H]3N1C2=O [Compound 15, haematocin]
MIC (Bacillus subtilis BS01; BS01, 24 h): 80 µg/mL (≈ 159 µM) | MIC ([1]; ATCC25922, 24 h): > 80 µg/mL | MIC (Micrococcus luteus [2]; 24 h): > 80 µg/mL | MIC ([3]; ATCC9027, 24 h): > 80 µg/mL | MIC (S. aureus MRSA; 24 h): > 80 µg/mL | MIC (S. iniae; 24 h): > 80 µg/mL | MIC ([4]; ATCC6538, 24 h): > 80 µg/mL | MIC ([5]; ATCC13813, 24 h): > 80 µg/mL | IC50 at 24 h [6, 17]: > 80 µM | IC50 at 24 h [7, 18]: > 80 µM | Toxicity (TC50) Brine Shrimp (brine shrimps): >80 µg/mL

CS[C@@]1(Cc2ccccc2)NC(=O)[C@]2(SC)CC3=COC=C[C@H](O)[C@H]3N2C1=O [Compound 18, emestrin H]
MIC (Bacillus subtilis BS01; BS01, 24 h): 80 µg/mL (≈ 191 µM) | MIC ([1]; ATCC25922, 24 h): > 80 µg/mL | MIC (Micrococcus luteus [2]; 24 h): > 80 µg/mL | MIC ([3]; ATCC9027, 24 h): > 80 µg/mL | MIC (S. aureus MRSA; 24 h): > 80 µg/mL | MIC (S. iniae; 24 h): 40 µg/mL (≈ 95.6 µM) | MIC ([4]; ATCC6538, 24 h): > 80 µg/mL | MIC ([5]; ATCC13813, 24 h): > 80 µg/mL | IC50 at 24 h [6, 17]: 50.6 µM | IC50 at 24 h [7, 18]: 41.2 µM | Toxicity (TC50) Brine Shrimp (brine shrimps): >80 µg/mL

CS[C@@]12C[C@H]3[C@@H]([C@@H](O)C=C[C@@H]3O)N1C(=O)[C@]1(SC)C[C@H]3[C@@H]([C@@H](O)C=C[C@@H]3O)N1C2=O [Penicibrocazine C]
MIC against Micrococcus luteus (Micrococcus luteus [9]): 0.25 µg/mL (≈ 0.55 µM)

O=C1N2[C@H]3C(=CC=C[C@@H]3O)C[C@]23SS[C@]12C[C@H]1[C@@H]([C@@H](O)C=C[C@@H]1O)N2C3=O [brocazine G]
MIC against Staphylococcus aureus (Staphylococcus aureus): 0.25 µg/mL (≈ 0.615 µM) | IC50 [10]: 0.66 µM

O=C(N[C@H](CO)[C@H](O)c1ccc([N+](=O)[O-])cc1)C(Cl)Cl [chloromycetin]
MIC against Micrococcus luteus (Micrococcus luteus [9]): 2.0 µg/mL (≈ 6.19 µM)
